Data as given in article PMC6759758, “Cofactor Selectivity in Methylmalonyl Coenzyme A Mutase, a Model Cobamide-Dependent Enzyme” (mBio, 2019).
Read-outs that look alike come from different tables or passages of the source.

Key:
[1] = biological target: T1, SmMCM (methylmalonyl-CoA mutase from S. meliloti) (Rhizobium meliloti, UniProt O86028); experiment: biochemical; type: binding, Sinorhizobium meliloti; details: for binding to SmMCM detected by fluorescence quench (in words): low-micromolar / micromolar concentrations
T1 construct: made in house; host or cells: E. coli BL21(DE3)pLysS
T1 sequence (O86028 2-712): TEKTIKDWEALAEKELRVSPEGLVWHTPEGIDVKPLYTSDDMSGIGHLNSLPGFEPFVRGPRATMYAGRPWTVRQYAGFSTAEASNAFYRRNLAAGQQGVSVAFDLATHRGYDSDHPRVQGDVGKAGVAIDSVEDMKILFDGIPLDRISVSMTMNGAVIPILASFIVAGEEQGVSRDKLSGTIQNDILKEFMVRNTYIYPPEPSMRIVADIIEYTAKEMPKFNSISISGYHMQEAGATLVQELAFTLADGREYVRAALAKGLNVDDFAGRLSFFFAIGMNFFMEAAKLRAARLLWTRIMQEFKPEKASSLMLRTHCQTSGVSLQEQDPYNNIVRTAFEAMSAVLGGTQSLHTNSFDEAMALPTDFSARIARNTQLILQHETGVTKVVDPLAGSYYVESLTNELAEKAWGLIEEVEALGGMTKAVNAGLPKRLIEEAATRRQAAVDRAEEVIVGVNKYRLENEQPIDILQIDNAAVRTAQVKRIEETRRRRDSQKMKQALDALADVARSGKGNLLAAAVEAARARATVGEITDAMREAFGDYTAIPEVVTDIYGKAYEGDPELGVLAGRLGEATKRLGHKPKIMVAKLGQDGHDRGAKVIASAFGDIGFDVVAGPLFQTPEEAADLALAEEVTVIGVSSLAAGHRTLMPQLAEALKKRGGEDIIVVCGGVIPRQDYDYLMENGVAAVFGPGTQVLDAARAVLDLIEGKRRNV
Experimental: (§1) All steps involving cobamides were conducted in the dark. The plate was centrifuged for 1 min at 3,800 rpm to level the surface of the liquid in each well. The plate was then incubated for 40 min at 30°C to allow binding, with a brief shaking step after 30 min. […] Following incubation, fluorescence emission at 340 nm (5-nm slit width) was measured upon excitation at 282 nm (5-nm slit width) using a Tecan Infinite M1000 Pro plate reader. Fluorescence, normalized to the initial value, was plotted as a function of cobamide concentration, and fitted to the following equation ([134]): F/F0=1+ΔFmax/F0([E]+[L]+Kd)−([E]+[L]+Kd)^2−4[E][L]/2[E] where F is fluorescence, F0 is initial fluorescence, [E] is total enzyme concentration, [L] is total ligand concentration, and Kd is the binding dissociation constant.

SmMCM = biological target: T2, SmMCM (Rhizobium meliloti, UniProt O86028); experiment: Filtration binding assay; set-up: species or system Sinorhizobium meliloti; details: 10 μM cobamide, 15 μM SmMCM
T2 construct: made in house; host or cells: E. coli BL21(DE3)pLysS
T2 sequence (O86028 2-712): T1 sequence (O86028 2-712)
Experimental: Cobamides (10 μM) with and without MCM (15 μM) were incubated in 100 mM Tris, 50 mM phosphate, pH 7.5, at 30°C for 40 min, transferred to Nanosep 10K Omega centrifugal devices (Pall Corporation), and centrifuged for 5 min at 13,900 × g to separate unbound cobamides from enzyme-bound cobamides. The UV-Vis spectra of the filtrates were recorded on a BioTek Synergy 2 plate reader.

MCM [2] = tested on: MCM; set-up: method as in PMID 10563814; details: cited from earlier work
VpMCM (V. parvula MCM) = VpMCM (V. parvula MCM) (Veillonella parvula, UniProt A0A124EFR6); experiment: Fluorescence binding assay, VpMCM; details: fitted curve, error = standard error of the curve fit; equimolar α and β subunits
Experimental: The α subunit of VpMCM (encoded by Vpar_RS09005) was expressed with an N-terminal 6×His tag from the pET-Duet expression vector in E. coli BL21(DE3). Protein expression was induced with 520 μM IPTG for 6 h at 30°C. The protein was batch purified by nickel affinity and subsequently purified by FPLC using a HiTrapQ column with an NaCl gradient from 50 to 500 mM in […], pH 8.0, 10% glycerol. The β subunit of VpMCM (encoded by Vpar_RS09000) was expressed separately with an N-terminal 6×His tag from the pET-Duet expression vector in E. coli BL21(DE3). […] Purified protein was dialyzed into 25 mM Tris-HCl, pH 8.0, 300 mM NaCl, 10% glycerol, and 1 mM β-mercaptoethanol. Concentration of pure α and β subunits (Fig. S7) was determined by absorbance at 280 nm (A280) using the theoretically calculated extinction coefficients 75,290 M^−1 cm^−1 and 74,260 M^−1 cm^−1, respectively ([125]). Equimolar amounts of α and β subunits were combined during the setup of fluorescence binding assays.
as §1

MCM [3] = tested on: MCM; set-up: method as in PMID 14235521; details: cited from earlier work
[4] = biological target: T3, SmMCM (Sinorhizobium meliloti MCM) (Rhizobium meliloti, UniProt O86028); experiment: Thiokinase-coupled spectrophotometric MCM activity assay; type: biochemical; details: SmMCM 50 nM reconstituted with 2 μM cobamide; (R)-methylmalonyl-CoA to succinyl-CoA, steady state, 30°C
T3 construct: made in house; host or cells: E. coli BL21(DE3)pLysS
T3 sequence (O86028 2-712): T1 sequence (O86028 2-712)
Experimental: Final concentrations of reagents in the assays were as follows: Tris-phosphate buffer (pH 7.5), 100 mM Tris, 50 mM phosphate; dithionitrobenzoate (DTNB), 400 μM; ADP, 1 mM; MgCl2, 10 mM; (R)-methylmalonyl-CoA, 0 to 4 mM; thiokinase, 5 μM; MCM, 50 nM; and cobamides, 2 μM.
Three separate mixes were prepared, all in 1× Tris-phosphate buffer: an assay mix containing DTNB, ADP, and MgCl2; a substrate mix containing (R)-methylmalonyl-CoA; and an enzyme mix containing thiokinase, MCM, and cobamides. All steps involving cobamides were conducted in the dark. The assay and enzyme mixes were prepared as a master mix and aliquoted into 96-well plates; substrate mixes were prepared in individual wells, in triplicate. All components were incubated at 30°C for 40 min to equilibrate temperature and allow prebinding of cobamides and MCM. After incubation, one replicate at a time, the substrate mix was added to the assay mix, followed by the enzyme mix. Absorbance at 412 nm (A412) was recorded immediately after addition of enzyme and for 1 to 3 min, every 3 s, on a BioTek Synergy 2 plate reader. The increase in A412 in reaction mixtures lacking substrate was subtracted from all readings, to account for reactivity of DTNB with thiols on protein surfaces.

EcMCM (E. coli MCM) = biological target: T4, EcMCM (E. coli MCM) (Escherichia coli, UniProt P27253); experiment: Fluorescence binding assay, EcMCM; details: read-out: Kd EcMCM; fitted curve, error = standard error of the curve fit
T4 construct: 6xHis (N); made in house; host or cells: E. coli BL21(DE3)
Experimental: as §1

P. shermanii MCM = tested on: P. shermanii MCM; set-up: method as in PMID 11031263; details: cited from earlier work

VpMCM (V. parvula MCM), sequence (A0A124EFR6 entry or part of it): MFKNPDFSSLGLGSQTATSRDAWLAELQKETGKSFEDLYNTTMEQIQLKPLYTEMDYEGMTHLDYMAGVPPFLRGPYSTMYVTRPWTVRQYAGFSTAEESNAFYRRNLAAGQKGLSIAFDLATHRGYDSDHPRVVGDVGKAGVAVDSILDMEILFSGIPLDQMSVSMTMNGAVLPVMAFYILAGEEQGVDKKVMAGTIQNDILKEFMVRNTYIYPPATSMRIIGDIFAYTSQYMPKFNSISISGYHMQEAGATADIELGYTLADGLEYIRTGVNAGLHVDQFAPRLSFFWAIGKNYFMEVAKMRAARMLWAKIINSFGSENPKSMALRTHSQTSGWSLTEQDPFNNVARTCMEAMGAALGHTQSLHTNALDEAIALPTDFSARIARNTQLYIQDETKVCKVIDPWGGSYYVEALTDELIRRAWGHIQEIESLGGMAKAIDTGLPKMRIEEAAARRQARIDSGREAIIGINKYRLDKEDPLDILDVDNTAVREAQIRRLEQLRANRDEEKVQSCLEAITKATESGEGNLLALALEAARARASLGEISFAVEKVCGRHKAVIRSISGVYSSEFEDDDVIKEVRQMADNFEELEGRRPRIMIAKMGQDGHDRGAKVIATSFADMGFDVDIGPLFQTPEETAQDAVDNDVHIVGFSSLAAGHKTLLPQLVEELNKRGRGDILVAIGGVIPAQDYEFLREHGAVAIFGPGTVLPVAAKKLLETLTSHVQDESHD
T4 sequence (P27253 whole entry): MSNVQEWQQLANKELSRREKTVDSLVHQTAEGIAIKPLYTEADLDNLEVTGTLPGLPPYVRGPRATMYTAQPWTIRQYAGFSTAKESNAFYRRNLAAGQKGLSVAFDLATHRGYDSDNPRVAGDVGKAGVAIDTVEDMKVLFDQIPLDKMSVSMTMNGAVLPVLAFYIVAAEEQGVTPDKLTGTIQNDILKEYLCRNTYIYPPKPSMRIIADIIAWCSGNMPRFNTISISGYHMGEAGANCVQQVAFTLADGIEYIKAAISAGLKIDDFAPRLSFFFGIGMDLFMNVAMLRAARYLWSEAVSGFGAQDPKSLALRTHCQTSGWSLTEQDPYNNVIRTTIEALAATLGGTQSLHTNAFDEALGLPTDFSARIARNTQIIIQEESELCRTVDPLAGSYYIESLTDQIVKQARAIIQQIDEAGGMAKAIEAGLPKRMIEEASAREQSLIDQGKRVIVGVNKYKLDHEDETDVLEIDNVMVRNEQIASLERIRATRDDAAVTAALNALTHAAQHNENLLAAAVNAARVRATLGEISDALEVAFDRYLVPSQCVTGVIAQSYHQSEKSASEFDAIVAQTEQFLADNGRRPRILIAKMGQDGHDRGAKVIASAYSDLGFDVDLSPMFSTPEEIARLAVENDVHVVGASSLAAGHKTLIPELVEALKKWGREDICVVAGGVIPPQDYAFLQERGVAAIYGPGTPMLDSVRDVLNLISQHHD

5-Hydroxybenzimidazolylcobamide [Ado[5-OHBza]Cba]
binding to SmMCM detected by fluorescence quench (in words) [1]: no binding
binding to SmMCM in filtration-based assay (SmMCM): little to no binding

C/C1=C2/[N-][C@H]([C@H](CC(N)=O)[C@@]2(C)CCC(=O)NC[C@@H](C)O)[C@]2(C)N=C(/C(C)=C3N=C(/C=C4N=C1[C@@H](CCC(N)=O)C\4(C)C)[C@@H](CCC(N)=O)[C@]\3(C)CC(N)=O)[C@@H](CCC(N)=O)[C@]2(C)CC(N)=O.[CH2-][C@H]1O[C@@H](n2cnc3c(N)ncnc32)[C@H](O)[C@@H]1O.[Co+3] [Ado-cobinamide, adenosylcobinamide, reference compound]
Kd [1]: 0.8 ± 0.2 µM
support of MCM activity in vitro (MCM [2]): does not support MCM activity

C/C1=C2/[N-][C@H]([C@H](CC(N)=O)[C@@]2(C)CCC(=O)NC[C@@H](C)OP(=O)([O-])O[C@H]2[C@@H](O)[C@@H](n3cnc4cc(C)c(C)cc43)O[C@@H]2CO)[C@]2(C)N=C(/C(C)=C3N=C(/C=C4N=C1[C@@H](CCC(N)=O)C\4(C)C)[C@@H](CCC(N)=O)[C@]\3(C)CC(N)=O)[C@@H](CCC(N)=O)[C@]2(C)CC(N)=O.[CH2-][C@H]1O[C@@H](n2cnc3c(N)ncnc32)[C@H](O)[C@@H]1O.[Co+3] [AdoCbl, adenosylcobalamin, reference compound]
Kd ([1]; SmMCM 0.2 μM, pH 7.5, 30°C, average and standard deviation for three or more independent experiments, n. d. = binding too weak to determine Kd): 0.03 ± 0.02 µM
Kd (VpMCM (V. parvula MCM)): 2.8 ± 0.6 µM
MCM activity in S. meliloti bacteroids (MCM [3]): highest
kcat [4]: 26 ± 1 s⁻¹
Kd (EcMCM (E. coli MCM)): 0.6 ± 0.1 µM

C/C1=C2/[N-][C@H]([C@H](CC(N)=O)[C@@]2(C)CCC(=O)NC[C@@H](C)OP(=O)([O-])O[C@H]2[C@@H](O)[C@@H](n3cnc4ncnc(N)c43)O[C@@H]2CO)[C@]2(C)N=C(/C(C)=C3N=C(/C=C4N=C1[C@@H](CCC(N)=O)C\4(C)C)[C@@H](CCC(N)=O)[C@]\3(C)CC(N)=O)[C@@H](CCC(N)=O)[C@]2(C)CC(N)=O.[CH2-][C@H]1O[C@@H](n2cnc3c(N)ncnc32)[C@H](O)[C@@H]1O.[Co+3] [Ado[Ade]Cba, Adeninylcobamide]
binding to SmMCM detected by fluorescence quench (in words) [1]: did not bind to any significant extent
Kd (VpMCM (V. parvula MCM)): 9 ± 4 µM
MCM activity in S. meliloti bacteroids (MCM [3]): absent
Kd (EcMCM (E. coli MCM)): 1.6 ± 0.4 µM
binding to SmMCM in filtration-based assay (SmMCM): did not bind to any significant extent

C/C1=C2/[N-][C@H]([C@H](CC(N)=O)[C@@]2(C)CCC(=O)NC[C@@H](C)OP(=O)([O-])OP(=O)([O-])OC[C@H]2O[C@@H](n3cnc4c(=O)[nH]c(N)nc43)[C@H](O)[C@@H]2O)[C@]2(C)N=C(/C(C)=C3N=C(/C=C4N=C1[C@@H](CCC(N)=O)C\4(C)C)[C@@H](CCC(N)=O)[C@]\3(C)CC(N)=O)[C@@H](CCC(N)=O)[C@]2(C)CC(N)=O.[CH2-][C@H]1O[C@@H](n2cnc3c(N)ncnc32)[C@H](O)[C@@H]1O.[Co] [adenosylcobinamide-GDP]
support of P. shermanii MCM activity compared to AdoCbl (P. shermanii MCM): only slight catalytic impairment
